This note sets out measurements from paper PMC7577563 (Journal of medicinal chemistry, 2019).

Square brackets hold non-standard residues; d marks the D form. Peptide text beside a SMILES is read from it. Tyr(SO2F) = N[C@@H](Cc1ccc(OS(=O)(=O)F)cc1)C(=O)O; NMeA = CN[C@@H](C)C(=O)O

One data set is described as follows: Plasma stability. The format is in vitro ADME. The settings on record: mouse plasma.

As to `CN[C@@H](C)C(=O)N[C@@H](CNC(=O)c1ccc(S(=O)(=O)F)cc1)C(=O)N1CCC[C@H]1C(=O)N[C@@H](Cc1ccccc1)C(N)=O` [Compound 2], the “Aqueous stability at physiological pH” value in the data set “Chemical” is reported as “the least stable”. Regarding `CN[C@@H](C)C(=O)N[C@@H](CNCc1ccc(S(=O)(=O)F)cc1)C(=O)N1CCC[C@H]1C(=O)N[C@@H](Cc1ccccc1)C(N)=O` [Compound 3], in “Chemical”, the “Aqueous stability at physiological pH” value is recorded as “intermediate stability”.

With `CN[C@@H](C)C(=O)N[C@@H](Cc1ccc(OS(=O)(=O)F)cc1)C(=O)N1CCC[C@H]1C(=O)N[C@@H](Cc1ccccc1)C(N)=O` [Compound 4] (H-[NMeA][Tyr(SO2F)]PF-NH2), in the data set “Chemical”, the “Aqueous stability at physiological pH” value is “the most stable”. In the case of `CN[C@@H](C)C(=O)N[C@@H](CNCc1ccc(S(=O)(=O)F)cc1)C(=O)N1CCC[C@H]1C(=O)N[C@@H]1CCc2c(F)cccc21` [Compound 11, 4-((((S)-3-((S)-2-(((R)-4-fluoro-2,3-dihydro-1H-inden-1-yl)carbamoyl)pyrrolidin-1-yl)-2-((S)-2(methylamino)propanamido)-3-oxopropyl)amino)methyl)benzenesulfonyl fluoride], the “Plasma stability” value in “Plasma stability” is on record as “completely degraded in plasma after 40 minutes”.
